Test results: patent US20190208782A1, “PROCESSING COMPOSITION FOR C[…] WEEDS” (Arch Chemicals, Inc., priority 2018, published 2019)

Columns and labels:
Assay type in all cases: in vivo
water hyacinth = assay: Foliar application of fluroxypyr herbicide on water hyacinth (Example 2); conditions: for Water hyacinth biomass reduction: 6 WAT
Protocol: Materials and Methods: Water hyacinth was obtained from field locations and cultured outdoors in a 300 gallon tank. Water in the culture tank was amended with 30 mg/L Miracle-Gro® fertilizer (14-8-16) every week to maintain plant growth. Aquashade® was added to the tank in sufficient concentration to darken the water in order to reduce algae growth
Once a sufficient density of water hyacinth had been achieved in the culture tank (plants had covered the water surface), 54-63 rosettes of similar size were harvested and divided so that six to seven rosettes (depending upon size) were placed into each of 9, 100 gallon treatment tanks. The treatment tanks were filled to a depth of 45 cm with water. Water in each treatment tank was amended and maintained in a similar fashion as the culture tank. Plants were allowed to grow approximately 2 weeks or until the water surface in each tank had been covered. Pre-treatment biomass (1 per tank) was harvested using a 0.1 m^2 PVC quadrat. The quadrat was pushed down over the plant mat in each tank and all biomass was harvested within the PVC frame. Biomass from each tank was rinsed, placed in a paper bag, and dried at 50 C to assess biomass.
After the growth period and pre-treatment harvest, plants were treated as a foliar spray using the product and rates outlined in Table 3. Treatments were applied using water as a carrier in a fine foliar spray and a total spray volume of 100 gal/acre. AB Brand Adjuvant (commercially available from Lonza, Inc.) was included in the herbicide solution at a rate of 0.25% v:v.
After treatment, each tank was rated on a scale from 0 (no control) to 100% (complete mortality) control every week for six weeks. At six weeks after treatment the 0.1 m^2 PVC quadrat was used to harvest 1 biomass sample from each tank if living biomass was present. Samples were rinsed, placed into labeled paper bags, and dried at 50 C to determine dry weight biomass. Differences between treatments were analyzed using ANOVA at a p≤0.05 significance level, and if a difference in treatments was detected means were then separated using a Fisher's Protected LSD test.

Eurasian watermilfoil = assay: Fluroxypyr potassium salt vs ester formulation on Eurasian watermilfoil in small scale aquaria (Example 3); conditions: 24 h exposure, 4 WAT
Protocol: Materials and Methods: Eurasian watermilfoil was obtained from cultures. Two apical tips approximately 10 cm long were planted into each of 96, plastic containers (473 mL). The containers were filled with potting soil and amended with 2 g/L/soil Osmocote® fertilizer 19-6-12. A layer of sand was placed on top of the sediment in each container to prevent sediment re-suspension in the aquaria. Four containers of potted Eurasian watermilfoil were placed into each of 24 aquaria. Each aquaria was filled to a volume of 45 L and plants allowed to grow approximately 2-3 weeks prior to herbicide treatments or until plants were at or near the water surface. Pre-treatment biomass was harvested from extra aquaria set up with pots for this purpose. Biomass was harvested by cutting aboveground biomass of plants at the soil surface in the three pretreatment aquaria. Harvested plant material was placed into individually labeled paper bags, dried in a force air oven at 50 C for at least 48 h, and then weighed to assess biomass. […]
Each week, aquaria were rated for percent control on a 0-100% scale (0%=no control; 100% complete plant mortality). […] Differences between treatments were analyzed using ANOVA and means separated using a Fisher's Protected LSD test at a p≤0.05 significance level.

[1] = tested on: sago pondweed (Stuckenia pectinata); assay: Native plant selectivity screening in aquaria, sago pondweed (Example 6); conditions: 50-3200 ug/L
Protocol: Materials and Methods: The study was conducted in an indoor aquaria facility. Elodea (Elodea canadensis) was obtained from cultures. Two apical tips approximately 10 cm long were planted into each of 48, plastic containers (16 oz. plastic cups). The containers were filled with potting soil and amended with 2 g/L Osmocote® fertilizer 19-6-12. A layer of sand was placed on top of the sediment in each container to prevent sediment re-suspension in the aquaria. Two containers of potted elodea were placed into each of 24 aquaria measuring 11.5 in×11.5 in×24 in. Additionally, sago pondweed (Stuckenia pectinata) tubers were obtained. The tubers were floated in shallow containers filled with water until new sprouts began to grow.
Once sprouted, two tubers were planted into 16 oz containers in a similar fashion as elodea. Two containers of potted sago pondweed were placed into each of the 24 aquaria, so that each aquarium had 4 potted plants (2 pots of each species). […]
At four weeks after treatment (WAT), plants were, harvested, sorted to aboveground biomass, dried in a forced air oven at 50 C for at least 48 h, and weighed for biomass determination (g/DW/aquaria). Differences between treatments were analyzed using an ANOVA, and if treatment differences were detected; means were separated using a Tukey's All-Pairwise comparison test. […]

CCCCCCC(C)OC(=O)COc1nc(F)c(Cl)c(N)c1Cl (stereo not shown) [Fluroxypyr ester, [(4-amino-3,5-dichloro-6-fluoro-2-pyridinyl)oxy]acetic acid, 1-methylheptyl ester]
Mean percent control ratings of water hyacinth (water hyacinth; 8 oz/acre foliar spray, 1 week after treatment): 15% | Mean percent control ratings of water hyacinth (water hyacinth; 8 oz/acre foliar spray, 2 weeks after treatment): 40% | Mean percent control ratings of water hyacinth (water hyacinth; 8 oz/acre foliar spray, 3 weeks after treatment): 45% | Mean percent control ratings of water hyacinth (water hyacinth; 8 oz/acre foliar spray, 4 weeks after treatment): 65% | Mean percent control ratings of water hyacinth (water hyacinth; 8 oz/acre foliar spray, 5 weeks after treatment): 85% | Water hyacinth biomass reduction (water hyacinth; 8 oz/acre foliar spray): 90% | Mean percent control ratings of water hyacinth (water hyacinth; 8 oz/acre foliar spray, 6 weeks after treatment): 85% | time of plant death (water hyacinth; 16 oz/acre foliar spray): approximately 4 WAT | Mean percent control ratings of water hyacinth (water hyacinth; 16 oz/acre foliar spray, 1 week after treatment): 35% | Mean percent control ratings of water hyacinth (water hyacinth; 16 oz/acre foliar spray, 2 weeks after treatment): 45% | Mean percent control ratings of water hyacinth (water hyacinth; 16 oz/acre foliar spray, 3 weeks after treatment): 65% | Mean percent control ratings of water hyacinth (water hyacinth; 16 oz/acre foliar spray, 4 weeks after treatment): 85% | Mean percent control ratings of water hyacinth (water hyacinth; 16 oz/acre foliar spray, 5 weeks after treatment): 95% | Water hyacinth biomass reduction (water hyacinth; 16 oz/acre foliar spray): 99% | Mean percent control ratings of water hyacinth (water hyacinth; 16 oz/acre foliar spray, 6 weeks after treatment): 95% | Eurasian watermilfoil biomass reduction (Eurasian watermilfoil; 200 ug/L): 100% | Eurasian watermilfoil biomass reduction (Eurasian watermilfoil; 400 ug/L): 100% | adverse effects on sago pondweed ([1]; four weeks of static exposure): did not exhibit any adverse effects | visible herbicide symptoms on sago pondweed ([1]; throughout the study, static exposure): no visible herbicide symptoms
